From article PMC6130489, “Caffeic acid methyl and ethyl esters exert potential antidiabetic effects on glucose and lipid metabolism in cultured murine insulin-sensitive cells through mechanisms implicating activation of AMPK” (Pharmaceutical Biology, 2017)

Experiments:
3T3-L1 adipocytes = experiment: Adipogenesis assay (AdipoRed lipid accumulation); format: cell-based; settings: Mus musculus, 192 h, 3T3-L1, day 8 of differentiation; for IC50: read-out: adipogenesis inhibition IC50
Protocol: Starting from day 0 of differentiation, 3T3-L1 adipocytes were separately treated with different concentrations of either CAME or CAEE (12.5, 25, 50 and 100 μM). Cells treated with vehicle (0.1% DMSO) in proliferation and differentiation media were used as negative controls. The adipogenic compound rosiglitazone (5 μM) was added to some vehicle-treated wells and served as the positive control. At day 8 after initiation of differentiation, intracellular lipid accumulation was quantified as previously described using AdipoRed Reagent according to the manufacturer’s protocol (Martineau et al. [2010]).
Figure 3. (A and B) Anti-adipogenic effect of CAME and CAEE in 3T3-L1 adipocytes. Cells were treated with several concentrations (12.5, 25, 50 and100 μM) of either CAME or CAEE in DMEM containing 10% FBS and the standard adipogenic cocktail (500 μM 3-isobutyl-1-methylxanthine, 500 nM insulin and 10 μM dexamethasone) for 2 days then in DMEM containing 10% FBS and 500 nM insulin starting from days 2-8 of differentiation. This medium was changed every 2 days. (A) On day 8, lipid content was measured by AdipoRed assay. Results represent the means ± SEM of three independent experiments. *Indicates a significant (p ≤ 0.05) difference, **(p < 0.01), ***(p < 0.001) from the vehicle control group. […] Vehicle-treated cells show the presence of lipid droplets. On the other hand, cells treated with the maximum nontoxic concentration (100 μM) of either CAME or CAEE retained the fibroblast-like morphology of pre-adipocytes and were devoid of lipid droplets. (C) CAME and CAEE inhibit pre-adipocyte clonal expansion. Confluent 3T3-L1 pre-adipocytes undergoing clonal expansion in response to differentiation cues were treated with vehicle or 12.5, 25, 50 and 100 μM of either CAME or CAEE for 20 h and incorporation of ^3H-labeled thymidine was measured. Normalized data are presented as mean ± SEM of three independent experiments. **Indicates a significant (p ≤ 0.01) difference, ***(p < 0.001) from the vehicle control group.

AMPK [1] = experiment: Western immunoblot phospho-AMPK in L6 myotubes; format: cell-based, rat; settings: 50 μM, 18 h, phospho-AMPK/β-actin
Protocol: L6 cells myotubes, H4IIE cells and 3T3-L1 adipocytes were treated with either CAME, CAEE (50 μM each) or vehicle (DMSO) for 18 h. Insulin (100 nM) or aminoimidazole carboxamide ribonucleotide (AICAR; 1 mM) were added to some vehicle-treated wells 30 min prior to the end of the treatment and served as the positives controls. Protein content was assayed by the bicinchoninic acid method (Thermo Scientific Pierce Protein Research, Rockford, IL) standardized to bovine serum albumin. Western immunoblotting was performed as described elsewhere (Eid et al. [2010]). Membranes were incubated overnight with phospho-AMPK, phospho-Akt, GLUT4, GLUT1 and β-actin antibodies (1:1000 dilution, Cell Signalling Technology, Danvers, MA), or with PPAR-γ, SREBP-1 (1:200, Santa Cruze Biotechnology, Santa Cruz, CA), followed by incubation with HRP-coupled secondary antibody (1:10,000) for 1 h. Immunoreactive bands were visualized by enhanced chemiluminescence and quantified by the Scion Image program (Scion Corporation, Frederick, MD). Experiments were repeated on 3 different passages of cells, each passage containing all conditions in parallel.
Figure 1. (A) CAME and CAEE increase ^3H-deoxyglucose uptake in L6 GLUT4myc myotubes. Cells were treated with 50 μM of either CAME, CAEE, or with vehicle (0.1% DMSO) for 18 h. 100 nM insulin served as the positive control and was applied for the last 15 min of the treatment in vehicle-treated cells. Glucose uptake was performed as described in Materials and Methods section. […] Cells were treated as previously described, cell surface GLUT4myc was detected by an enzyme-linked colorimetric assay. […] Results represent the means ± SEM of three independent experiments, and 3-4 cells were analyzed for each condition per experiment. *Indicates a significant (p ≤ 0.05) difference, **(p < 0.01) from the vehicle control group as assessed by ANOVA. […] Data are expressed as (D) phospho-AMPK/β-actin, (E) GLUT4/β-actin and (F) GLUT1/β-actin and are given as mean ± SEM from 3 experiments. *p < 0.05 indicates a significant difference, **(p < 0.01) from the vehicle control group.

GLUT4 = experiment: Western immunoblot GLUT4 protein content in L6 myotubes; format: cell-based, rat; settings: 50 μM, 18 h, GLUT4/β-actin
Protocol: (§1) L6 cells myotubes, H4IIE cells and 3T3-L1 adipocytes were treated with either CAME, CAEE (50 μM each) or vehicle (DMSO) for 18 h. Insulin (100 nM) or aminoimidazole carboxamide ribonucleotide (AICAR; 1 mM) were added to some vehicle-treated wells 30 min prior to the end of the treatment and served as the positives controls. Protein content was assayed by the bicinchoninic acid method (Thermo Scientific Pierce Protein Research, Rockford, IL) standardized to bovine serum albumin. Western immunoblotting was performed as described elsewhere (Eid et al. [2010]). […] Immunoreactive bands were visualized by enhanced chemiluminescence and quantified by the Scion Image program (Scion Corporation, Frederick, MD). […]
Figure 1. […] Cells were treated as previously described, cell surface GLUT4myc was detected by an enzyme-linked colorimetric assay. […] Results represent the means ± SEM of three independent experiments, and 3-4 cells were analyzed for each condition per experiment. *Indicates a significant (p ≤ 0.05) difference, **(p < 0.01) from the vehicle control group as assessed by ANOVA. […] Data are expressed as (D) phospho-AMPK/β-actin, (E) GLUT4/β-actin and (F) GLUT1/β-actin and are given as mean ± SEM from 3 experiments. *p < 0.05 indicates a significant difference, **(p < 0.01) from the vehicle control group.

AMPK [2] = experiment: Western immunoblot phospho-AMPK in H4IIE cells; format: cell-based, rat; settings: 50 μM, 18 h, AICAR 1 mM 30 min as positive control
Protocol: as §1
Figure 2. […] (A) H4IIE hepatocytes were treated for 16 h with several concentrations (12.5, 25, 50 and100 μM) of either CAME or CAEE and G6Pase activity was determined colorimetrically using a commercial glucose assay kit as described under Materials and Methods. […] (D) Data are expressed as phospho-AMPK/pan-AMPK and are given as mean ± SEM from 3 experiments. *p < 0.05 indicates a significant difference, **(p < 0.01), ***(p < 0.001) from the vehicle control group.

With COC(=O)/C=C/c1ccc(O)c(O)c1 [CAME, CA methyl ester] the IC50 (3T3-L1 adipocytes) was 13.8 µM, the inhibition at 100 µM (3T3-L1 adipocytes) was 83.3 ± 7.2% and the “AMPK phosphorylation, fold increase over DMSO” value (AMPK [1]) was 13 fold. The “GLUT4 content, fold compared to DMSO” value (GLUT4) was about 2.7 fold and the AMPK phosphorylation (AMPK [2]) was “increase in AMPK phosphorylation to the same extent as the positive control AICAR”.
With CCOC(=O)/C=C/c1ccc(O)c(O)c1 [CAEE, caffeic acid ethyl ester] the IC50 (3T3-L1 adipocytes) was 12.9 µM, the inhibition at 100 µM (3T3-L1 adipocytes) was 97.3 ± 3% and the “AMPK phosphorylation, fold increase over DMSO” value (AMPK [1]) was 11 fold. The “GLUT4 content, fold compared to DMSO” value (GLUT4) was about 3.2 fold and the AMPK phosphorylation (AMPK [2]) was “increase in AMPK phosphorylation to the same extent as the positive control AICAR”.
